Experimental data reported in patent publication US12371430B2, “5-morpholin-4-yl-pyrazolo[4,3-b]pyridine derivatives” (Merck Patent GmbH, priority 2018, dated 2025).

What was measured:
[1] = test system: phosphorylation of Chk1 (Ser 345) in HT29 colon adenocarcinoma cells; experiment: pCHK1 cellular assay; assay type: cell-based; settings: Homo sapiens, HT-29, hydroxyurea 3 mM, 4 h
From the text: Chk1 kinase acts downstream of ATR and has a key role in DNA damage checkpoint control. Activation of Chk1 involves phosphorylation of Ser317 and Ser345 (regarded as the preferential target for phosphorylation/activation by ATR) and occurs in response to blocked DNA replication and certain forms of genotoxic stress. Phosphorylation at Ser 345 serves to localize Chk1 to the nucleus following checkpoint activation.
This assay measures a decrease in phosphorylation of Chk1 (Ser 345) in HT29 colon adenocarcinoma cells following treatment with compound and hydroxyurea (which promotes fork stalling because of dNTP depletion) and using an immunocytochemical procedure and high content imaging.
For the assay HT29 cells are plated in culture medium (DMEM high Glucose (no phenol red), 2 mM Glutamax, 1 mM Pyruvate, 10% FCS into Greiner 384 well plates, black, μclear #781090 (2500 cells/well/30 μl) and incubated for at least 20 hours at 37° C., 10% CO2 and 90% rH. Diluted test compounds (1 nM-30 μM final) and hydroxyurea (3 mM final) are added simultaneously and cells are incubated for 4 h at 37° C. After fixation/prmeabilisation with 100% MeOH (−20° C. cold) and permeabilisation with 0.2% Triton X-100 a complete immunocytochemical procedure is performed using a specific anti-pChk1 antibody (Cell Signaling, #2348BF) and fluorescently labelled secondary antibody (Alexa Fluor® 488 goat anti-rabbit F(ab′)2 fragment, Invitrogen A11070) and parallel nuclear staining for cell counting.
The nuclear localised pChk1 signal is detected on an ImageXpress Ultra confocal high content reader and reported as % positive cells (nuclei).

ATR/ATRIP = ATR/ATRIP (Homo sapiens (Human), UniProt Q13535); experiment: ATR/ATRIP kinase assay (TR-FRET, p53 Ser15 phosphorylation); assay type: biochemical; settings: 0.5 μM ATP, 50 nM p53
Method: ATR/ATRIP Kinase Assay—Measurement of ATR/ATRIP Inhibition
The IC50 value was determined by an ATR/ATRIP enzymatic assay. The assay comprises two steps: the enzymatic reaction and the detection step. First, a mixture of ATR/ATRIP protein (Ataxia Telangiectasia and Rad3-related protein/ATR interacting protein), the compound in question at different concentrations, p53 as substrate protein and adenosine triphosphate (ATP) are incubated in assay buffer. ATR phosporylates p53 at Ser15 and other residues. The amount of phosphorylated p53 is then detected using specific antibodies and the TR-FRET assay technology.
In detail: The ATR/ATRIP enzymatic assay is performed as a TR-FRET-(HTRF™, Cisbio Bioassays) based 384-well assay. In a first step, purified human recombinant ATR/ATRIP (human ATR, full length, GenBank ID: NM_001184.3, and human ATRIP, full length, GenBank ID AF451323.1, co-expressed in a mammalian cell line) is incubated in assay buffer for 15 minutes at 22° C. with test compound at different concentrations or without test compound (as a negative control). The assay buffer contains 25 mM HEPES pH 8.0, 10 mM Mg(CH3COO)2, 1 mM MnCl2, 0.1% BSA, 0.01% Brij® 35, and 5 mM dithiothreitol (DTT). An Echo 555 (Labcyte) is used for dispensing of compound solutions. Then, in a second step, purified human recombinant cmyc-tagged p53 (human p53, full length, GenBank ID: BC003596, expressed in Sf21 insect cells) and ATP are added and the reaction mixture is incubated for 25-35 minutes, typically 25 minutes, at 22° C. The pharmacologically relevant assay volume is 5 μl. The final concentrations in the assay during incubation of the reaction mixture are 0.3-0.5 nM, typically 0.3 nM, ATR/ATRIP, 50 nM p53, and 0.5 μM ATP. The enzymatic reaction is stopped by the addition of EDTA. The generation of phosphorylated p53 as a result of the ATR mediated reaction in the presence of ATP is detected by using specific antibodies [labeled with the fluorophores europium (Eu) as donor and d2 as acceptor (Cisbio Bioassays)] enabling FRET. For this purpose, 2 μl of antibody-containing stop solution (12.5 mM HEPES pH 8.0, 125 mM EDTA, 30 mM sodium chloride, 300 mM potassium fluoride, 0.006% Tween-20, 0.005% Brij® 35, 0.21 nM anti-phospho-p53(Ser15)-Eu antibody, 15 nM anti-cmyc-d2 antibody) are added to the reaction mixture. Following signal development for 2 h the plates are analyzed in an EnVision (PerkinElmer) microplate reader using the TRF mode with laser excitation. Upon excitation of the donor europium at 340 nm the emitted fluorescence light of the acceptor d2 at 665 nm as well as from the donor Eu at 615 nm are measured. The amount of phosphorylated p53 is directly proportional to the ratio of the amounts of emitted light i.e. the ratio of the relative fluorescence units (rfu) at 665 nm and 615 nm. Data are processed employing the Genedata Screener software. In particular, IC50 values are determined in the usual manner by fitting a dose-response curve to the data points using nonlinear regression analysis. • IC50=half maximal inhibitory concentration • ATP=Adenosine triphosphate • TR-FRET=Time-Resolved Fluorescence Resonance Energy Transfer • HTRF®=Homogeneous Time Resolved Fluorescence • HEPES=2-(4-(2-Hydroxyethyl)-1-piperazinyl)-ethanesulfonic acid • Mg(CH3COO)2=Magnesium acetate • MnCl2=Manganese(II)-chloride • BSA=Bovine Serum Albumin • EDTA=Ethylendiamine Tetraacetate • TRF=Time Resolved Fluorescence pCHK1 Cellular Assay

Sequence of ATR/ATRIP (Q13535 whole entry): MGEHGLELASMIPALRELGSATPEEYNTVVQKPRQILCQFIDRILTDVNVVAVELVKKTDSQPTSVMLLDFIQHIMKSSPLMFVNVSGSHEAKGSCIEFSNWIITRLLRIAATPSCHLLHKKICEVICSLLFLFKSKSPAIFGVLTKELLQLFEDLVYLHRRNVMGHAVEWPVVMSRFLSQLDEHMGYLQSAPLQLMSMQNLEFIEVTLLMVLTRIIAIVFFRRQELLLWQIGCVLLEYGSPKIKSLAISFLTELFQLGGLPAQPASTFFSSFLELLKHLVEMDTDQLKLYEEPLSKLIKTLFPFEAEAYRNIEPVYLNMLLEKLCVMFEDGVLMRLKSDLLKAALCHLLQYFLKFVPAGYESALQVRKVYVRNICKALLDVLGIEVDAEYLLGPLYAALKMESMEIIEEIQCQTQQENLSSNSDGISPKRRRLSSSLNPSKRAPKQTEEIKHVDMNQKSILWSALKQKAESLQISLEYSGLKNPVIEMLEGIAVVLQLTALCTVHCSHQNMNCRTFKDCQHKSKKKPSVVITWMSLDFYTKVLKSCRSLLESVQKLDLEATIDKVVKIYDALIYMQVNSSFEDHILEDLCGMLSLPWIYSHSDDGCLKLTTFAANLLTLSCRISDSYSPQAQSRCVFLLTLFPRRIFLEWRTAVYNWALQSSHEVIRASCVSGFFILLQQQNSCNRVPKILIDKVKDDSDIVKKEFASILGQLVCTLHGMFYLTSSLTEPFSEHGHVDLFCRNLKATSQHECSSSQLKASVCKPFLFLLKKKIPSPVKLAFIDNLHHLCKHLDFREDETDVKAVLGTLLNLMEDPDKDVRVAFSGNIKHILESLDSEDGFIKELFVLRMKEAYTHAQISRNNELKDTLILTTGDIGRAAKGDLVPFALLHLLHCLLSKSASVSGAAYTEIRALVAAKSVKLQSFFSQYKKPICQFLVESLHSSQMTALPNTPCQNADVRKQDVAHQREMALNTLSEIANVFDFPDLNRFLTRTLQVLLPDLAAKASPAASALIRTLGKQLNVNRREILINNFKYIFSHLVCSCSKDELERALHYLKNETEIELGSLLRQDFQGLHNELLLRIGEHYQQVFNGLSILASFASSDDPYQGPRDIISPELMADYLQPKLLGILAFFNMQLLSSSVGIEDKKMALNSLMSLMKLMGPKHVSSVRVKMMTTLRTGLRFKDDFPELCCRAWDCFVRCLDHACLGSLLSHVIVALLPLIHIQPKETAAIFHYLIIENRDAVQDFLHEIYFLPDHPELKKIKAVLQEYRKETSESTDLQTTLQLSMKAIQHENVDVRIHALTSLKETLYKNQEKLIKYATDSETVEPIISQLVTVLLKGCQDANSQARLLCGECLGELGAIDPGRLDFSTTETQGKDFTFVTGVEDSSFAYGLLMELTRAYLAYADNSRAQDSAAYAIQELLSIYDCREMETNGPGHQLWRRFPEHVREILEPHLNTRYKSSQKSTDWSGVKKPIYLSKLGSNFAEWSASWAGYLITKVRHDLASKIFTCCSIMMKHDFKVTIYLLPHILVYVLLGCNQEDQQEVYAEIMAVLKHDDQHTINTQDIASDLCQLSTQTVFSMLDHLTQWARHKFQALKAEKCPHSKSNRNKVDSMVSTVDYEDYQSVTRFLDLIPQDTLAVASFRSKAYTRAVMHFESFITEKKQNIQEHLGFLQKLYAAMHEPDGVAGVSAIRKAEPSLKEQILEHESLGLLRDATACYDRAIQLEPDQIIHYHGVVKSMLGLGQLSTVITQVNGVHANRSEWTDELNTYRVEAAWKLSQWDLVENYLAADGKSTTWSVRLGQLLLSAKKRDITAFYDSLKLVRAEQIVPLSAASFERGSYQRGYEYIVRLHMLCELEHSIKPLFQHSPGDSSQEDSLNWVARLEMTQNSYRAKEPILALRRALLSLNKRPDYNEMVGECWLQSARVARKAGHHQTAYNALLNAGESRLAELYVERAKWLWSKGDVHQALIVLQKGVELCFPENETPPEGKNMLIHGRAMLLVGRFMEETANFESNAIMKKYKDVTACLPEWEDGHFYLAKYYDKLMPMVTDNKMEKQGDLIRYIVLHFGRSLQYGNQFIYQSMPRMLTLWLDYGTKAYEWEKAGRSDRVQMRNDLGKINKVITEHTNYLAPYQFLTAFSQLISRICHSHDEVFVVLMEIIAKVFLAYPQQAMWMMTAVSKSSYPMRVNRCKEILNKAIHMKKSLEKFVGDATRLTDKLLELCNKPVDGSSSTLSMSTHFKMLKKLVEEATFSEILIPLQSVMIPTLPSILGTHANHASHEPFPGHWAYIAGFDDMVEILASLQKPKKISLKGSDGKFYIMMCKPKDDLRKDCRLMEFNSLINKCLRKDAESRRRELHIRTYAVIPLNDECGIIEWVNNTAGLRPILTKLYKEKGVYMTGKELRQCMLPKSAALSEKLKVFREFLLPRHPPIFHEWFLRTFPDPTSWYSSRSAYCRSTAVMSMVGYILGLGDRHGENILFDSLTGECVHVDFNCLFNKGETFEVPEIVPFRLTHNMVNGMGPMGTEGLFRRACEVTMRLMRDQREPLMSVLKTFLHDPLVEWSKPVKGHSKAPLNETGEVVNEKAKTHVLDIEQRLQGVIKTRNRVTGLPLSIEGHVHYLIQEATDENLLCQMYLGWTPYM
Sequence of ATR/ATRIP (Q8WXE1 whole entry partner): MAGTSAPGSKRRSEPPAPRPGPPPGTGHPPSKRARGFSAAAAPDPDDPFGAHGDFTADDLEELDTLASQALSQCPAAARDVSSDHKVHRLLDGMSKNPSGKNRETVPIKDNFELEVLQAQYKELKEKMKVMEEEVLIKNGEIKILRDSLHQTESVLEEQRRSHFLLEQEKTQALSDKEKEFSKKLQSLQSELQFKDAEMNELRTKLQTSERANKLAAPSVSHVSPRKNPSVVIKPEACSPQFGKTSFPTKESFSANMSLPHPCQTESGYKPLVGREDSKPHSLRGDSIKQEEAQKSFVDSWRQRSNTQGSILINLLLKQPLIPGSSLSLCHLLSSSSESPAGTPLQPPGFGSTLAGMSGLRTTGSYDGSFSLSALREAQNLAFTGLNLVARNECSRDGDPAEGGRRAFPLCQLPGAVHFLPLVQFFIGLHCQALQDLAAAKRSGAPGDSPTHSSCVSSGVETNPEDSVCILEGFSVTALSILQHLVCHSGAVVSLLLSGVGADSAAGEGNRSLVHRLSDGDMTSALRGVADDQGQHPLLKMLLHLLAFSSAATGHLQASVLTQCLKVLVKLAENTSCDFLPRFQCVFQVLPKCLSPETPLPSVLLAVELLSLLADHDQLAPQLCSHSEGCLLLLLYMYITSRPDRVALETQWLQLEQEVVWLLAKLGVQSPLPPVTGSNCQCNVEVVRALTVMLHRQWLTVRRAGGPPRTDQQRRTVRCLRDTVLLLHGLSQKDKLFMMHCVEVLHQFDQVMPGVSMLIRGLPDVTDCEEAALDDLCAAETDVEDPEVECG

Row | SMILES | IC50 [1] [nM] | IC50 (ATR/ATRIP) [nM]
1 | C[C@@H]1COCCN1c1ccc2c(n1)c(-c1cc[nH]n1)nn2Cc1ccccn1 [Compound 88, (3R)-3-Methyl-4-[3-(1H-pyrazol-3-yl)-1-[(pyridin-2-yl)methyl]-1H-pyrazolo[4,3-b]pyridin-5-yl]morpholine] | 1000 to 10000 | –
2 | C[C@@H]1COCCN1c1cc(-c2ccnc3[nH]ccc23)c2nn(C)c(-c3cc[nH]n3)c2n1 [Compound 16, 2-Methyl-5-((R)-3-methyl-morpholin-4-yl)-3-(1H-pyrazol-3-yl)-7-(1H-pyrrolo[2,3-b]pyridin-4-yl)-2H-pyrazolo[4,3-b]pyridine] | 1000 to 10000 | 67
3 | Cc1ccc(S(C)(=O)=O)cc1-c1cc(N2CCOC[C@H]2C)nc2c(-c3ccn[nH]3)nn(C)c12 [Compound 75, (3R)-4-[7-(5-Methanesulfonyl-2-methylphenyl)-1-methyl-3-(1H-pyrazol-5-yl)-1H-pyrazolo[4,3-b]pyridin-5-yl]-3-methylmorpholine] | 100 to 1000 | 21
4 | Cc1ccc(-c2cc(N3CCOC[C@H]3C)nc3c(-c4cc[nH]n4)n(C)nc23)cn1 [Compound 14, 2-Methyl-5-((R)-3-methyl-morpholin-4-yl)-7-(6-methyl-pyridin-3-yl)-3-(1H-pyrazol-3-yl)-2H-pyrazolo[4,3-b]pyridine] | 1000 to 10000 | 99
5 | C[C@@H]1COCCN1c1ccc2c(n1)c(-c1cc[nH]n1)nn2CC1CC1 [Compound 63, (3R)-4-[1-(Cyclopropylmethyl)-3-(1H-pyrazol-3-yl)-1H-pyrazolo[4,3-b]pyridin-5-yl]-3-methylmorpholine] | 100 to 1000 | 27
6 | C[C@@H]1COCCN1c1ccc2[nH]nc(-c3cc[nH]n3)c2n1 [Compound 56, (3R)-3-Methyl-4-[3-(1H-pyrazol-3-yl)-1H-pyrazolo[4,3-b]pyridin-5-yl]morpholine] | 1000 to 10000 | 25
7 | Cc1cnccc1-c1cc(N2CCOC[C@H]2C)nc2c(-c3cc[nH]n3)nn(C)c12 [Compound 23, 1-Methyl-5-((R)-3-methyl-morpholin-4-yl)-7-(3-methyl-pyridin-4-yl)-3-(1H-pyrazol-3-yl)-1H-pyrazolo[4,3-b]pyridine] | 10 to 100 | 1
8 | C[C@@H]1COCCN1c1ccc2c(n1)c(-c1cc[nH]n1)nn2-c1ccc(S(C)(=O)=O)cc1 [Compound 46, 1-(4-Methanesulfonyl-phenyl)-5-((R)-3-methyl-morpholin-4-yl)-3-(1H-pyrazol-3-yl)-1H-pyrazolo[4,3-b]pyridine] | 1000 to 10000 | 25
9 | Cc1nc(S(C)(=O)=O)ccc1-c1cc(N2CCOC[C@H]2C)nc2c(-c3cc[nH]n3)n[nH]c12 [Compound 12, 7-(6-Methanesulfonyl-2-methyl-pyridin-3-yl)-5-((R)-3-methyl-morpholin-4-yl)-3-(1H-pyrazol-3-yl)-1H-pyrazolo[4,3-b]pyridine] | 100 to 1000 | 0.8
10 | C[C@@H]1COCCN1c1cc(C2CCS(=O)(=O)CC2)c2c(n1)c(-c1ccn[nH]1)nn2C [Compound 82] | 100 to 1000 | –
11 | C[C@@H]1COCCN1c1ccc2c(n1)c(-c1cc[nH]n1)nn2CCc1ccncc1 [Compound 77, (3R)-3-Methyl-4-[3-(1H-pyrazol-3-yl)-1-[2-(pyridin-4-yl)ethyl]-1H-pyrazolo[4,3-b]pyridin-5-yl]morpholine] | 1000 to 10000 | 58
12 | COCc1ccc(-c2cc(N3CCOC[C@H]3C)nc3c(-c4cc[nH]n4)nn(C)c23)cc1 [Compound 51, (3R)-4-{7-[4-(Methoxymethyl)phenyl]-1-methyl-3-(1H-pyrazol-3-yl)-1H-pyrazolo[4,3-b]pyridin-5-yl}-3-methylmorpholine] | 100 to 1000 | 1.2
13 | C[C@@H]1COCCN1c1cc(C2=CC[S+]([O-])CC2)c2c(n1)c(-c1ccn[nH]1)nn2C (stereo partly drawn) [Compound 80, 4-[1-Methyl-5-[(3R)-3-methylmorpholin-4-yl]-3-(1H-pyrazol-5-yl)-1H-pyrazolo[4,3-b]pyridin-7-yl]-3,6-dihydro-2H-1lambda4-thiopyran-1-one] | 100 to 1000 | –
14 | C[C@@H]1COCCN1c1ccc2c(n1)c(-c1cc[nH]n1)nn2Cc1cccnc1 [Compound 83, (3R)-3-Methyl-4-[3-(1H-pyrazol-3-yl)-1-[(pyridin-3-yl)methyl]-1H-pyrazolo[4,3-b]pyridin-5-yl]morpholine] | 1000 to 10000 | –
15 | Cc1c(-c2cc(N3CCOC[C@H]3C)nc3c(-c4cc[nH]n4)nn(C)c23)nnn1C [Compound 84, (3R)-4-[7-(1,5-Dimethyl-1H-1,2,3-triazol-4-yl)-1-methyl-3-(1H-pyrazol-3-yl)-1H-pyrazolo[4,3-b]pyridin-5-yl]-3-methylmorpholine] | 10 to 100 | –
16 | Cc1nc(S(C)(=O)=O)ccc1-c1cc(N2CCOC[C@H]2C)nc2c(-c3cc(C(F)(F)F)n[nH]3)nn(C)c12 [Compound 74, (3R)-4-[7-(6-Methanesulfonyl-2-methylpyridin-3-yl)-1-methyl-3-[3-(trifluoromethyl)-1H-pyrazol-5-yl]-1H-pyrazolo[4,3-b]pyridin-5-yl]-3-methyl-morpholine] | – | 17
17 | C[C@@H]1COCCN1c1cc([C@H]2CCOC2)c2c(n1)c(-c1ccn[nH]1)nn2C [Compound 72, 1-Methyl-5-((R)-3-methyl-morpholin-4-yl)-3-(2H-pyrazol-3-yl)-7-(R)-tetrahydro-furan-3-yl-1H-pyrazolo[4,3-b]pyridine] | 10 to 100 | –
18 | Cc1cc(S(C)(=O)=O)ncc1-c1cc(N2CCOC[C@H]2C)nc2c(-c3cc[nH]n3)n(C)nc12 [Compound 21, 7-(6-Methanesulfonyl-4-methyl-pyridin-3-yl)-2-methyl-5-((R)-3-methyl-morpholin-4-yl)-3-(1H-pyrazol-3-yl)-2H-pyrazolo[4,3-b]pyridine] | – | 510
19 | C[C@@H]1COCCN1c1cc(C2=CCSCC2)c2c(n1)c(-c1ccn[nH]1)nn2C [Compound 79, (3R)-4-[7-(3,6-Dihydro-2H-thiopyran-4-yl)-1-methyl-3-(1H-pyrazol-5-yl)-1H-pyrazolo[4,3-b]pyridin-5-yl]-3-methylmorpholine] | 10 to 100 | –
20 | C[C@@H]1COCCN1c1cc(O)c2c(n1)c(-c1ccn[nH]1)nn2C [Compound 45, 1-Methyl-5-((R)-3-methyl-morpholin-4-yl)-3-(2H-pyrazol-3-yl)-1H-pyrazolo[4,3-b]pyridin-7-ol] | – | 1800
